Biological target: Btk (Homo sapiens, UniProt Q06187)
Assay: Btk in vitro inhibitory activity, acellular kinase assay (TR-FRET)
Assay type: biochemical
Description: Btk kinase activity is determined using a time-resolved fluorescence resonance energy transfer (TR-FRET) methodology. Measurements are performed in a reaction volume of 50 μL using 96-well assay plates. Kinase enzyme, inhibitor, ATP (at the Km for the kinase), and 1 μM peptide substrate (Biotin-AVLESEEELYSSARQ-NH2) are incubated in a reaction buffer composed of 20 mM Tris, 50 mM NaCl, MgCl2 (5-25 mM depending on the kinase), MnCl2 (0-10 mM), 1 mM DTT, 0.1 mM EDTA, 0.01% bovine serum albumin, 0.005% Tween-20, and 10% DMSO at pH 7.4 for one hour. The reaction is quenched by the addition of 1.2 equivalents of EDTA (relative to divalent cation) in 25 μL of 1× Lance buffer (Perkin-Elmer). Streptavidin-APC (Perkin-Elmer) and Eu-labeled p-Tyr100 antibody (Perkin-Elmer) in 1× Lance buffer are added in a 25 μL volume to give final concentrations of 100 nM and 2.5 nM, respectively, and the mixture is allowed to incubate for one hour. The TR-FRET signal is measured on a multimode plate reader with an excitation wavelength (λEx) of 330 nm and detection wavelengths (λEm) of 615 and 665 nm. Activity is determined by the ratio of the fluorescence at 665 nm to that at 615 nm. For each compound, enzyme activity is measured at various concentrations of compound. Negative control reactions are performed in the absence of inhibitor in replicates of six, and two no-enzyme controls were used to determine baseline fluorescence levels. Inhibition constants, Ki(app), are obtained using the program BatchKi (Kuzmic et al. (2000), Anal. Biochem. 286:45-50). IC50s are obtained according to the equation: IC50={Ki(app)/(1+[ATP]/Km^ATP)}+[E]total/2;
For all kinases, [ATP]=Km^ATP, [Btk]total=0.5 nM and [Lck]total=6 nM.

Sequence of Btk (Q06187 whole entry): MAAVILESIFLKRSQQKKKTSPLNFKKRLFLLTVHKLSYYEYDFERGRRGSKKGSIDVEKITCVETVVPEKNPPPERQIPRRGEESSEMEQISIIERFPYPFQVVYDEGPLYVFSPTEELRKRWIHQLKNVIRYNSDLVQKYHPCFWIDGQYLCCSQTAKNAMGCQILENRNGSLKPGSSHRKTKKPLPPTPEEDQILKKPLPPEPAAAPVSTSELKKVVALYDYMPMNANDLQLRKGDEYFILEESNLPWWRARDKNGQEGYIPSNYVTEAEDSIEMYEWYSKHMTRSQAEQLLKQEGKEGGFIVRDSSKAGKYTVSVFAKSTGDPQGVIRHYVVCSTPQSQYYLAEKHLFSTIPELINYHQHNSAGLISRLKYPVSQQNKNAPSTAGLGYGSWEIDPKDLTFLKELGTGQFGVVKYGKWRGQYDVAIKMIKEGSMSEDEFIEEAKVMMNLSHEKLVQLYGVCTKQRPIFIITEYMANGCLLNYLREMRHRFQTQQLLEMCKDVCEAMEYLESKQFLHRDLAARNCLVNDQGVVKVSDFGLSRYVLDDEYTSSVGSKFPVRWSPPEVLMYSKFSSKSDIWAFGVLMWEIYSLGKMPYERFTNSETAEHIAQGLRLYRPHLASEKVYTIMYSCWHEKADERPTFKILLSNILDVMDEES

Row | Structure (SMILES) | IC50 [nM]
1 | Nc1ncnc2c1c(-c1ccc(Oc3ccccc3)cc1)nn2[C@@H]1CCN(C(=O)/C=C/CNc2ccccn2)C1 [Example 1s, (R,E)-1-(3-(4-amino-3-(4-phenoxyphenyl)-1H-pyrazolo[3,4-d]pyrimidin-1-yl)pyrrolidin-1-yl)-4-(pyridin-2-ylamino)but-2-en-1-one] | < 100
2 | CN(C(=O)/C=C/CN(C)C1CC1)c1cccc(-n2nc(-c3ccc(Oc4ccccc4)cc3)c3c(N)ncnc32)c1 [Example 7d, (E)-N-(3-(4-amino-3-(4-phenoxyphenyl)-1H-pyrazolo[3,4-d]pyrimidin-1-yl)phenyl)-4-(cyclopropyl(methyl)amino)-N-methylbut-2-enamide] | < 100
3 | CN(C/C=C/C(=O)N1CC[C@@H](n2nc(-c3ccc(Oc4ccccc4)cc3)c3c(N)ncnc32)C1)C1CC1 [Example 2u, (R,E)-1-(3-(4-amino-3-(4-phenoxyphenyl)-1H-pyrazolo[3,4-d]pyrimidin-1-yl)pyrrolidin-1-yl)-4-(cyclopropyl(methyl)amino)but-2-en-1-one] | < 100
4 | CN(C/C=C/C(=O)N1CCC[C@@H](n2nc(-c3ccc(Oc4ccccc4)cc3)c3c(N)ncnc32)C1)[C@@H]1CCOC1 [Example 2h, (E)-1-((R)-3-(4-amino-3-(4-phenoxyphenyl)-1H-pyrazolo[3,4-d]pyrimidin-1-yl)piperidin-1-yl)-4-(methyl((R)-tetrahydrofuran-3-yl)amino)but-2-en-1-one] | < 100
5 | CN(C/C=C/C(=O)N1CCC[C@@H](n2nc(-c3ccc(Oc4ccccc4)cc3)c3c(N)ncnc32)C1)C1CCCCC1 [Example 2ag, (R,E)-1-(3-(4-amino-3-(4-phenoxyphenyl)-1H-pyrazolo[3,4-d]pyrimidin-1-yl)piperidin-1-yl)-4-(cyclohexyl(methyl)amino)but-2-en-1-one] | < 100
6 | CN(C/C=C/C(=O)N1CC[C@@H](n2nc(-c3ccc(Oc4ccccc4)cc3)c3c(N)ncnc32)C1)c1ccccn1 [Example 1r, (R,E)-1-(3-(4-amino-3-(4-phenoxyphenyl)-1H-pyrazolo[3,4-d]pyrimidin-1-yl)pyrrolidin-1-yl)-4-(methyl(pyridin-2-yl)amino)but-2-en-1-one] | < 100
7 | COCCN(C/C=C/C(=O)N1CC[C@@H](n2nc(-c3ccc(Oc4ccccc4)cc3)c3c(N)ncnc32)C1)C1CC1 [Example 2p, (R,E)-1-(3-(4-amino-3-(4-phenoxyphenyl)-1H-pyrazolo[3,4-d]pyrimidin-1-yl)pyrrolidin-1-yl)-4-(cyclopropyl(2-methoxyethyl)amino)but-2-en-1-one] | < 100
8 | Nc1ncnc2c1c(-c1ccc(Oc3ccccc3)cc1)nn2[C@@H]1CCN(C(=O)/C=C/CNC2CCCCC2)C1 [Example 2x, (R,E)-1-(3-(4-amino-3-(4-phenoxyphenyl)-1H-pyrazolo[3,4-d]pyrimidin-1-yl)pyrrolidin-1-yl)-4-(cyclohexylamino)but-2-en-1-one] | < 100

Other lines, results leading:

Row | IC50 [nM] | Structure (SMILES)
9 | < 100 | CC(C)N(C/C=C/C(=O)N1CC[C@@H](n2nc(-c3ccc(Oc4ccccc4)cc3)c3c(N)ncnc32)C1)C1CC1 [Example 2q, (R,E)-1-(3-(4-amino-3-(4-phenoxyphenyl)-1H-pyrazolo[3,4-d]pyrimidin-1-yl)pyrrolidin-1-yl)-4-(cyclopropyl(isopropyl)amino)but-2-en-1-one]
10 | < 100 | CN1CCC(N(C)C/C=C/C(=O)N2CC[C@@H](n3nc(-c4ccc(Oc5ccccc5)cc4)c4c(N)ncnc43)C2)CC1 [Example 2ac, (R,E)-1-(3-(4-amino-3-(4-phenoxyphenyl)-1H-pyrazolo[3,4-d]pyrimidin-1-yl)pyrrolidin-1-yl)-4-(methyl(1-methylpiperidin-4-yl)amino)but-2-en-1-one]
11 | < 100 | CCN(C/C=C/C(=O)N1CC[C@@H](n2nc(-c3ccc(Oc4ccccc4)cc3)c3c(N)ncnc32)C1)C1CCC1 [Example 2ap, (R,E)-1-(3-(4-amino-3-(4-phenoxyphenyl)-1H-pyrazolo[3,4-d]pyrimidin-1-yl)pyrrolidin-1-yl)-4-(cyclobutyl(ethyl)amino)but-2-en-1-one]
12 | < 100 | CN(C(=O)/C=C/CN(C)C1CCC1)c1cccc(-n2nc(-c3ccc(Oc4ccccc4)cc3)c3c(N)ncnc32)c1 [Example 7e, (E)-N-(3-(4-amino-3-(4-phenoxyphenyl)-1H-pyrazolo[3,4-d]pyrimidin-1-yl)phenyl)-4-(cyclobutyl(methyl)amino)-N-methylbut-2-enamide]
13 | < 100 | CN(C/C=C/C(=O)N1CC[C@@H](n2nc(-c3ccc(Oc4ccccc4)cc3)c3c(N)ncnc32)C1)[C@H]1CCOC1 [Example 2d, (E)-1-((R)-3-(4-amino-3-(4-phenoxyphenyl)-1H-pyrazolo[3,4-d]pyrimidin-1-yl)pyrrolidin-1-yl)-4-(methyl((S)-tetrahydrofuran-3-yl)amino)but-2-en-1-one]
14 | < 100 | CN(C/C=C/C(=O)N1CC[C@@H](n2cc(-c3ccc(Oc4ccccc4)cc3)c3c(N)ncnc32)C1)C1CC1 [Example 6b, (R,E)-1-(3-(4-amino-5-(4-phenoxyphenyl)-7H-pyrrolo[2,3-d]pyrimidin-7-yl)pyrrolidin-1-yl)-4-(cyclopropyl(methyl)amino)but-2-en-1-one]
15 | < 100 | Nc1ncnc2c1c(-c1ccc(Oc3ccccc3)cc1)nn2[C@@H]1CCCN(C(=O)/C=C/CNC2CCCCC2)C1 [Example 2ah, (R,E)-1-(3-(4-amino-3-(4-phenoxyphenyl)-1H-pyrazolo[3,4-d]pyrimidin-1-yl)piperidin-1-yl)-4-(cyclohexylamino)but-2-en-1-one]
16 | < 100 | CN(C/C=C/C(=O)Nc1cccc(-n2nc(-c3ccc(Oc4ccccc4)cc3)c3c(N)ncnc32)c1)C1CCC1 [Example 7g, (E)-N-(3-(4-amino-3-(4-phenoxyphenyl)-1H-pyrazolo[3,4-d]pyrimidin-1-yl)phenyl)-4-(cyclobutyl(methyl)amino)but-2-enamide]
17 | < 100 | CC(C)N(C/C=C/C(=O)N1CC[C@@H](n2nc(-c3ccc(Oc4ccccc4)cc3)c3c(N)ncnc32)C1)C1CCC1 [Example 2aq, (R,E)-1-(3-(4-amino-3-(4-phenoxyphenyl)-1H-pyrazolo[3,4-d]pyrimidin-1-yl)pyrrolidin-1-yl)-4-(cyclobutyl(isopropyl)amino)but-2-en-1-one]
18 | < 100 | Nc1ncnc2c1c(-c1ccc(Oc3ccccc3)cc1)nn2[C@@H]1CCN(C(=O)/C=C/CNC2CCC2)C1 [Example 2ab, (R,E)-1-(3-(4-amino-3-(4-phenoxyphenyl)-1H-pyrazolo[3,4-d]pyrimidin-1-yl)pyrrolidin-1-yl)-4-(cyclobutylamino)but-2-en-1-one]
19 | < 100 | CN(C/C=C/C(=O)N1CC[C@@H](n2nc(-c3ccc(Oc4ccccc4)cc3)c3c(N)ncnc32)C1)[C@@H]1CCOC1 [Example 2b, (E)-1-((R)-3-(4-amino-3-(4-phenoxyphenyl)-1H-pyrazolo[3,4-d]pyrimidin-1-yl)pyrrolidin-1-yl)-4-(methyl((R)-tetrahydrofuran-3-yl)amino)but-2-en-1-one]
20 | < 100 | CN(C/C=C/C(=O)N1CCC[C@@H](n2nc(-c3ccc(Oc4ccccc4)cc3)c3c(N)ncnc32)C1)C1CCC1 [Example 2ak, (R,E)-1-(3-(4-amino-3-(4-phenoxyphenyl)-1H-pyrazolo[3,4-d]pyrimidin-1-yl)piperidin-1-yl)-4-(cyclobutyl(methyl)amino)but-2-en-1-one]

Source: patent US9138436B2, “Inhibitors of Bruton's tyrosine kinase” (PHARMACYCLICS LLC, priority 2011, dated 2015)
